Experimental data published in patent US20240247080A1, “GLP1/GIP/NPY2 RECEPTOR TRIPLE AGONISTS” (Boehringer Ingelheim International GmbH, priority 2022, published 2024).
Like-named read-outs stand apart in the source and are kept apart here. Starred links: 1 amine or outer side, 2 acyl side, 3 side chain; linkers in the order of their positions; H or OH if unused. Non-standard residues stand in square brackets, D forms with d. Groups on a side chain read outwards from the residue. No end group written: not given here. *: point of attachment. C20 diacid = O=C(O)CCCCCCCCCCCCCCCCCCC(=O)*; γGlu = O=C(O)[C@H](CCC(=O)[*:2])N[*:1]; εLys = N[C@@H](CCCCN[*:1])C(=O)[*:2]; Aib = CC(C)(N)C(=O)O

Columns and labels:
[1] = Mouse PK after intravenous application; type: in vivo; conditions: mean residence time, intravenous 30-60 nmol/kg, male NMRI mice
Description: Pharmacokinetic parameters of the peptides were determined after intravenous application to NMRI mice. Male NMRI mice were obtained from Janvier Laboratories (France) weighing 30 to 40 g. Mice were housed in standard cages with a 12:12 hour light:dark cycle and standard food and water access ad libitum. Each test peptide was dissolved in 50 mM phosphate buffer (pH 7.4)/3.5% mannitol. Intravenous application of 30-60 nmol/kg was performed via the tail vein. Serial blood samples from conscious mice were collected from the saphenous vein in EDTA-containing vials at different time points up to 56 hours post-dosing. Subsequently, plasma was prepared by centrifugation for 5 min at approximately 5000 rpm and stored at −20° C. until quantification of the peptide plasma levels by liquid chromatography mass spectrometry (LC-MS). Individual plasma concentration—time profiles were analysed by a non-compartmental approach and the resulting pharmacokinetic parameters were calculated.

[2] = Effect on acute food intake in normal NMRI mice; type: in vivo; conditions: 30 nmol/kg subcutaneously once, normalized to vehicle group, male NMRI mice
Description: Example 4: Effect on Acute Food Intake in Normal NMRI Mice
Male NMRI mice were obtained from Janvier (Janvier Labs, France) or from Charles River (Charles River Research Models & Services Germany GmbH) at the age of 3 weeks. The animals get a microchip (Datamars, Slim Microchip T-SL) for individual identification after delivery. They were housed with 4 mice per cage under a 12/12 dark-light cycle, light off at 3 p.m. Room temperature was controlled to 21° C. +/−1° C. and humidity 60%+/−20%. Mice had ad libitum access to regular rodent chow (KLIBA Nafag 3040 or Altromin 1324, Brogaarden, Denmark) and tap water.
Latest transfer into the HM2-System of MBRose, Denmark (real-time monitoring system of food- and water intake) of the animals 5 days before study start, to allow acclimatization to experimental conditions. As the animals were uniquely identified with the microchips, each individual animal was identified by its own microchip upon entry and exit from the food channel via antennae. Randomization of the mice for each study group (n=8; age earliest 6 weeks old) was based on food intake (middle of last three days 24 h-Intervall) and bodyweight directly before start of the study. A vehicle treated (50 mM phosphate buffer pH7.4 with 3.5% Mannitol) group was included in each experiment. To have the same nutrition standard for each animal the food access was locked eight hours before dark phase. One hour before night, the animals were once treated subcutaneously with the test peptide. Food intake was reported hourly for a period of 24 h.

[3] = biological target: T1, hGLP1R (Homo sapiens, UniProt P43220); assay: hGLP1R CreLuc reporter gene assay in 0.5% and 100% plasma; type: cell-based; conditions: CreLuc reporter gene assay, 0.5% human plasma; read-out: hGLP1R 0.5% hP
T1 construct: expressed in transfected cells; host or cells: HEK-293 cells carrying a CRE-luciferase reporter gene
T1 sequence (P43220 24-463): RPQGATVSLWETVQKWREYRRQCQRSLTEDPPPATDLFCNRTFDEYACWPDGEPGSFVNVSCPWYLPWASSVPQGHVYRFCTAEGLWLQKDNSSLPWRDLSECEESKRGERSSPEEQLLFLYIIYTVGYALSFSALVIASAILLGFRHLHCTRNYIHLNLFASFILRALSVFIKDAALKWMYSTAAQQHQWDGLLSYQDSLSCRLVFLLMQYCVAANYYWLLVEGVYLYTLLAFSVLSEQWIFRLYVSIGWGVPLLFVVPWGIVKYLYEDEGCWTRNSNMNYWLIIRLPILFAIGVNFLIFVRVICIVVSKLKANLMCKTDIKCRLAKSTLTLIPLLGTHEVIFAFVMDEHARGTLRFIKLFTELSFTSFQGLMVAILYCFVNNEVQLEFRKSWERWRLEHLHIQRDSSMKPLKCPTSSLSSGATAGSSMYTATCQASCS
Procedure, shortened: (§1)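 Agonist EC50s came from 8-concentration curves over four decades, fitted by non-linear variable-slope regression of CRE-driven luciferase luminescence. Cells were exposed 4 h at 37 °C, in buffer with 0.5% human plasma or in 100% plasma; GIPR was expressed in CHO cells, GLP-1R and NPY2R in HEK cells.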

[4] = biological target: T2, hGIPR (Homo sapiens, UniProt P48546); assay: hGIPR CreLuc reporter gene assay in 0.5% and 100% plasma; type: cell-based; conditions: CreLuc reporter gene assay
T2 construct: expressed in transfected cells; host or cells: CHO cells carrying a CRE-luciferase reporter gene
T2 sequence (P48546 22-466): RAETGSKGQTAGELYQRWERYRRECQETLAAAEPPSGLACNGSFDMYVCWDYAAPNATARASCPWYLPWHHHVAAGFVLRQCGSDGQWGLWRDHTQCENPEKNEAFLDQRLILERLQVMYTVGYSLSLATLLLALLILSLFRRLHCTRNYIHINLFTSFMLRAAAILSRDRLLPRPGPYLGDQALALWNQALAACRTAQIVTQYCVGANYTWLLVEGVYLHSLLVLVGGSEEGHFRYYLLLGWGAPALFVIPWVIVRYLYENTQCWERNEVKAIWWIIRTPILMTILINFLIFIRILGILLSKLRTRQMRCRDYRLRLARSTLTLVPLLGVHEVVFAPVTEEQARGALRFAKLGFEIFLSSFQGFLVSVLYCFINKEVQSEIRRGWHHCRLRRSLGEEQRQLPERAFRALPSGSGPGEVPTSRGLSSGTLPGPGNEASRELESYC
Procedure, shortened: as §1

[5] = biological target: T3, hNPY2R (Homo sapiens, UniProt P49146); assay: hNPY2R CreLuc reporter gene assay in 0.5% and 100% plasma; type: cell-based; conditions: CreLuc reporter gene assay, 0.5% human plasma; read-out: hNPY2R 0.5% hP
T3 construct: expressed in transfected cells; host or cells: HEK-293 cells carrying a CRE-luciferase reporter gene
T3 sequence (P49146 1-381): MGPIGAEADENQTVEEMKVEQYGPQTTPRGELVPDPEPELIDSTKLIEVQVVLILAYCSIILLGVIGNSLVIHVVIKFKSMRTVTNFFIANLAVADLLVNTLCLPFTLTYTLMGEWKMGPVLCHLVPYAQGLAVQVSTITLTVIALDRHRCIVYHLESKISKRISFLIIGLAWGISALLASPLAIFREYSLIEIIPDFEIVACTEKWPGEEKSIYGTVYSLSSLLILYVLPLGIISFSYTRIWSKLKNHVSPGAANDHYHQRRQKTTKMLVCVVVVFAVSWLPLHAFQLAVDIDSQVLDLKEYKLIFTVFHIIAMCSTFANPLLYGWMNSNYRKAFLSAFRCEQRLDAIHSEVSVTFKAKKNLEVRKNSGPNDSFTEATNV
Procedure, shortened: as §1

[6] = 0.5% human plasma, read-out: hGIPR 0.5% hP
[7] = 100% human plasma, read-out: hGIPR 100% hP

MRT ([1]; in vivo)	EC50 [3]	EC50 [4, 6]	EC50 [4, 7]	EC50 [5]	MRT ([1]; plasma)	Compound	Acute Food Intake 24 h 30 nmol/kg [% CTL] [2]
11 h	–	–	–	–	–	CC[C@H](C)[C@H](NC(=O)[C@H](CC(C)C)NC(=O)[C@H](Cc1c[nH]c2ccccc12)NC(=O)[C@H](CCC(=O)O)NC(=O)[C@@H](NC(=O)[C@H](Cc1ccccc1)NC(=O)[C@H](C)NC(=O)C(C)(C)NC(=O)[C@H](CCC(N)=O)NC(=O)[C@H](C)NC(=O)[C@H](CCC(N)=O)NC(=O)[C@H](CCCCN)NC(=O)[C@H](CCC(=O)O)NC(=O)[C@H](CC(C)C)NC(=O)C(C)(C)NC(=O)[C@@H](NC(=O)[C@H](CO)NC(=O)[C@H](Cc1ccc(O)cc1)NC(=O)[C@H](CC(=O)O)NC(=O)[C@H](CO)NC(=O)[C@@H](NC(=O)[C@H](Cc1ccccc1)NC(=O)[C@@H](NC(=O)CNC(=O)[C@H](CCC(=O)O)NC(=O)C(C)(C)NC(=O)[C@@H](N)Cc1ccc(O)cc1)[C@@H](C)O)[C@@H](C)O)[C@@H](C)CC)C(C)C)C(=O)N[C@@H](CCCCNC(=O)[C@@H](N)CCCCNC(=O)[C@H](CCC(=O)O)NC(=O)CC[C@H](NC(=O)CC[C@H](NC(=O)CC[C@H](NC(=O)CC[C@H](NC(=O)CC[C@H](NC(=O)CCCCCCCCCCCCCCCCCCC(=O)O)C(=O)O)C(=O)O)C(=O)O)C(=O)O)C(=O)O)C(=O)NCC(=O)NCC(=O)N1CCC[C@H]1C(=O)N[C@@H](CO)C(=O)N[C@@H](CCC(=O)O)C(=O)NCC(=O)N[C@@H](C)C(=O)N[C@@H](CO)C(=O)N[C@@H](CC(C)C)C(=O)N[C@@H](CCCNC(=N)N)C(=O)N[C@@H](Cc1c[nH]cn1)C(=O)N[C@@H](Cc1ccc(O)cc1)C(=O)N[C@@H](Cc1ccc(O)cc1)C(=O)N[C@@H](CC(N)=O)C(=O)N[C@@H](Cc1c[nH]c2ccccc12)C(=O)N[C@@H](CC(C)C)C(=O)N[C@H](C(=O)N[C@@H](CCCNC(=N)N)C(=O)N[C@@H](CCC(N)=O)C(=O)N[C@@H](CCCNC(=N)N)C(=O)N[C@@H](Cc1ccc(O)cc1)C(N)=O)[C@@H](C)O [Compound 286, Y-Aib-E-G-T-F-T-S-D-Y-S-I-Aib-L-E-K-Q-A-Q-Aib-A-F-V-E-W-L-I-K(1,3)-GGPSEGASLRHYYNWLTRQRY-NH2.C20DA-gGlu-gGlu-gGlu-gGlu-gGlu-Glu-eLys(1,2)]	58 % CTL
–	0.34 nM	0.46 nM	1.23 nM	17.3 nM	11 h	CC[C@H](C)[C@H](NC(=O)[C@H](CC(C)C)NC(=O)[C@H](Cc1c[nH]c2ccccc12)NC(=O)[C@H](CCC(=O)O)NC(=O)[C@@H](NC(=O)[C@H](Cc1ccccc1)NC(=O)[C@H](CCC(=O)O)NC(=O)C(C)(C)NC(=O)[C@H](CCC(N)=O)NC(=O)[C@H](C)NC(=O)[C@H](CCC(N)=O)NC(=O)[C@H](CCCCN)NC(=O)[C@H](CCC(=O)O)NC(=O)[C@H](CC(C)C)NC(=O)C(C)(C)NC(=O)[C@@H](NC(=O)[C@H](CO)NC(=O)[C@H](Cc1ccc(O)cc1)NC(=O)[C@H](CC(=O)O)NC(=O)[C@H](CO)NC(=O)[C@@H](NC(=O)[C@H](Cc1ccccc1)NC(=O)[C@@H](NC(=O)CNC(=O)[C@H](CCC(=O)O)NC(=O)C(C)(C)NC(=O)[C@@H](N)Cc1ccc(O)cc1)[C@@H](C)O)[C@@H](C)O)[C@@H](C)CC)C(C)C)C(=O)N[C@@H](CCCCNC(=O)[C@@H](N)CCCCNC(=O)CC[C@H](NC(=O)CC[C@H](NC(=O)CC[C@H](NC(=O)CC[C@H](NC(=O)CC[C@H](NC(=O)CC[C@H](NC(=O)CCCCCCCCCCCCCCCCC(=O)O)C(=O)O)C(=O)O)C(=O)O)C(=O)O)C(=O)O)C(=O)O)C(=O)NCC(=O)NCC(=O)N1CCC[C@H]1C(=O)N[C@@H](CO)C(=O)N[C@@H](CCC(=O)O)C(=O)NCC(=O)N[C@@H](C)C(=O)N[C@@H](CO)C(=O)N[C@@H](CC(C)C)C(=O)N[C@@H](CCCNC(=N)N)C(=O)N[C@@H](Cc1c[nH]cn1)C(=O)N[C@@H](Cc1ccc(O)cc1)C(=O)N[C@@H](Cc1ccc(O)cc1)C(=O)N[C@@H](CC(N)=O)C(=O)N[C@@H](Cc1c[nH]c2ccccc12)C(=O)N[C@@H](CC(C)C)C(=O)N[C@H](C(=O)N[C@@H](CCCNC(=N)N)C(=O)N[C@@H](CCC(N)=O)C(=O)N[C@@H](CCCNC(=N)N)C(=O)N[C@@H](Cc1ccc(O)cc1)C(N)=O)[C@@H](C)O [Compound 255, Y-Aib-E-G-T-F-T-S-D-Y-S-I-Aib-L-E-K-Q-A-Q-Aib-E-F-V-E-W-L-I-K(1,3)-GGPSEGASLRHYYNWLTRQRY-NH2.C18DA-gGlu-gGlu-gGlu-gGlu-gGlu-gGlu-eLys(1,2)]	–
–	0.12 nM	0.28 nM	1.23 nM	14.9 nM	13 h	Y[Aib]EGTFTSDYSI[Aib]LEKQAQ[Aib]AFVEWLIK([εLys-γGlu-γGlu-γGlu-γGlu-γGlu-γGlu-γGlu-C20 diacid])GGPSSGASLRHYYNWLTRQRY-NH2 [Compound 225, Y-Aib-E-G-T-F-T-S-D-Y-S-I-Aib-L-E-K-Q-A-Q-Aib-A-F-V-E-W-L-I-K(1,3)-GGPSSGASLRHYYNWLTRQRY-NH2.C20DA-gGlu-gGlu-gGlu-gGlu-gGlu-gGlu-gGlu-eLys(1,2)]	–
